Data on 34 compounds can be found in US7812036B2, “Androgens” (N.V. Organon, priority 2004, dated 2010).

In this assay the target is T1, human androgen receptor (Homo sapiens, UniProt P10275).
T1 construct: expressed in transfected cells; host or cells: Chinese hamster ovary (CHO) cells, line CHO-AR-pMMTV-LUC 1G12-A5-CA
T1 sequence (P10275 1-920): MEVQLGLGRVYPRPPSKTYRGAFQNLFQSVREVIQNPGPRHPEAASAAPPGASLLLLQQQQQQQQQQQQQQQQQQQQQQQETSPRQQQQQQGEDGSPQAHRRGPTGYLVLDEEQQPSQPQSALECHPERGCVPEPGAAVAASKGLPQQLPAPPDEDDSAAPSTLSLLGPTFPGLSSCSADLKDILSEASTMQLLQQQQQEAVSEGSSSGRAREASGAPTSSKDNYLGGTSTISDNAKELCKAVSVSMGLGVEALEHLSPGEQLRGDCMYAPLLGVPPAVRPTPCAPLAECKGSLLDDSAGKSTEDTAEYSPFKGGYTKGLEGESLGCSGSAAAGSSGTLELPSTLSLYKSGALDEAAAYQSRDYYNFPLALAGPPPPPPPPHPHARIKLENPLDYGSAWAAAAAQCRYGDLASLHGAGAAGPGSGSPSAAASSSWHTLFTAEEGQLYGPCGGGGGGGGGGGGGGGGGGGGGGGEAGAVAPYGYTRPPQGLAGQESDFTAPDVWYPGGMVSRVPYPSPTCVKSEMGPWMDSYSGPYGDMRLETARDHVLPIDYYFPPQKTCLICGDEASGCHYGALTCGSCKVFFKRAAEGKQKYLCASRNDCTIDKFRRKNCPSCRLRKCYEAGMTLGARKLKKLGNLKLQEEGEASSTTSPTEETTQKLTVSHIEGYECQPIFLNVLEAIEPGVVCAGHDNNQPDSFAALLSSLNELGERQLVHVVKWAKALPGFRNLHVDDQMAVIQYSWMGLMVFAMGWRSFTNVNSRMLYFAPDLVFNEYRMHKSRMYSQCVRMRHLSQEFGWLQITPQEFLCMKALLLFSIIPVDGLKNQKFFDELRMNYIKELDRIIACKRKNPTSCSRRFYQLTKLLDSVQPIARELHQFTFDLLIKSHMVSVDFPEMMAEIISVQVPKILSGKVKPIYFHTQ
The experiment in a line: Androgenic activity (potency) in vitro bioassay, CHO-AR-pMMTV-LUC 1G12-A5-CA cells, luciferase reporter. The assay is classed as cell-based. The note with it: CHO cells stably transfected with human androgen receptor and MMTV-luciferase reporter; in the presence of 0.1 μmol/l onapristone; potencies expressed as percentage of DHT activity (maximal efficacy with 100 nmol/l DHT set as 100%). The protocol: The androgenic activity (potency) of the compounds of the invention was determined in an in vitro bioassay of Chinese hamster ovary (CHO) cells stably transfected with the human androgen receptor expression plasmid and a reporter plasmid in which the MMTV promoter is linked to the luciferase reporter gene. The cell line CHO-AR-pMMTV-LUC 1G12-A5-CA is described in Schoonen et al. (J. Steroid Biochem. Molec. Biol. 2002; 74: 213-222). The androgen receptor activity of compounds was determined in the presence of 0.1 μmol/l onapristone. The maximal efficacy in the presence of 100 nmol/1 DHT was set as 100%. The potencies are expressed as percentage of DHT activity.
Regarding `CNc1ccc2c(Sc3ccccc3[N+](=O)[O-])cn(Cc3ncccn3)c2c1` [Example 5f, Methyl-[3-(2-nitro-phenylsulfanyl)-1-pyrimidin-2-ylmethyl-1H-indol-6-yl]-amine], the “Potency (%)” value is reported as 1.8%.

Turning to `N#CCNc1ccc2c(Sc3ccccc3[N+](=O)[O-])cn(Cc3cccnc3)c2c1` [Example 21j, [3-(2-Nitro-phenylsulfanyl)-1-pyridin-3-ylmethyl-1H-indol-6-ylamino]-acetonitrile], the “Potency (%)” value was found to be 1.0%. With `CNc1ccc2c(Sc3ccccc3C(=O)OC)cn(Cc3cc(F)cc(F)c3)c2c1` [Example 9] the figure was 0.7%; with `C=C(C)CNc1ccc2c(Sc3ccccc3[N+](=O)[O-])cn(Cc3cc(F)cc(F)c3)c2c1` [Example 22c], 1.2%.

Consider `CNc1ccc2c(Sc3ccccc3[N+](=O)[O-])cn(Cc3cccc(C#N)c3)c2c1` [Example 5r, 3-[6-Methylamino-3-(2-nitro-phenylsulfanyl)-1-indol-1-ylmethyl]-benzonitrile], for which the “Potency (%)” value was determined as 11.4%. As to `CNc1ccc2c(Sc3ccccc3C(C)=O)cn(Cc3cc(F)cc(F)c3)c2c1` [Example 8, 1-{2-[1-(3,5-Difluoro-benzyl)-6-methylamino-1H-indol-3-ylsulfanyl]-phenyl}-ethanone], the “Potency (%)” value came to 0.2%. `O=[N+]([O-])c1ccccc1Sc1cn(Cc2cc(F)cc(F)c2)c2cc(NCC3CC3)ccc12` [Example 22d]: the “Potency (%)” value amounted to 0.9%. With `CN(C)c1ccc2c(Sc3ccccc3[N+](=O)[O-])cn(Cc3ccccn3)c2c1` [Example 19c, Dimethyl-[3-(2-nitro-phenylsulfanyl)-1-pyridin-2-ylmethyl-1H-indol-6-yl]-amine], the “Potency (%)” value is 1.2%.

For `CNc1ccc2c(Sc3ccccc3CO)cn(Cc3cc(F)cc(F)c3)c2c1` [Example 10], the “Potency (%)” value came to 4.3%. Then `CNc1ccc2c(Sc3ccccc3C#N)cn(Cc3cc(F)cc(F)c3)c2c1` [Example 6], with 10.5%.

`CNc1ccc2c(Sc3ccccc3[N+](=O)[O-])cn(Cc3cc(C#N)cc(C#N)c3)c2c1` [Example 5s, 5-[6-Methylamino-3-(2-nitro-phenylsulfanyl)-indol-1-ylmethyl]-isophthalonitrile]: the “Potency (%)” value is 5.9%. Regarding `O=[N+]([O-])c1ccccc1Sc1cn(Cc2cc(F)cc(F)c2)c2cc(NCC(F)(F)F)ccc12` [Example 21k, [1 (3,5-Difluoro-benzyl)-3-(2-nitro-phenylsulfanyl)-1H-indol-6-yl]-(2,2,2-trifluoroethyl)-amine], the “Potency (%)” value turned out to be 0.6%.

Consider `CCNc1ccc2c(Sc3ccccc3[N+](=O)[O-])cn(Cc3cc(F)cc(F)c3)c2c1` [Example 19a, [1-(3,5-Difluoro-benzyl)-3-(2-nitro-phenylsulfanyl)-1H-indol-6-yl]-ethyl-amine], for which the “Potency (%)” value is 2.7%.

As to `CNc1ccc2c(Sc3ccccc3[N+](=O)[O-])cn(Cc3cocn3)c2c1` [Example 5j, Methyl-[3-(2-nitro-phenylsulfanyl)-1-oxazol-4-ylmethyl-1H-indol-6-yl]-amine], the “Potency (%)” value is given as 14.8%. With `O=[N+]([O-])c1ccccc1Sc1cn(Cc2cc(F)cc(F)c2)c2cc(NCCO)ccc12` [Example 21b, 2-[1-(3,5-Difluoro-benzyl)-3-(2-nitro-phenylsulfanyl)-1H-indol-6-ylamino]-ethanol], the “Potency (%)” value is 7.9%. Then `CNc1ccc2c(Sc3ccccc3[N+](=O)[O-])cn(Cc3cscn3)c2c1` [Example 5l, Methyl-[3-(2-nitro-phenylsulfanyl)-1-thiazol-4-ylmethyl-1H-indol-6-yl]-amine], with 4.8%. Take `COCCNc1ccc2c(Sc3ccccc3[N+](=O)[O-])cn(Cc3ccccn3)c2c1` [Example 21e, (2-Methoxy-ethyl)-[3-(2-nitro-phenylsulfanyl)-1-pyridin-2-ylmethyl-1H-indol-6-yl]-amine]: the “Potency (%)” value is 8.3%. With `CNc1ccc2c(Sc3ccccc3[N+](=O)[O-])cn(Cc3cccc(Cl)c3)c2c1` [Example 5p, [1-(3-Chloro-benzyl)-3-(2-nitro-phenylsulfanyl)-1H-indol-6-yl]-methyl-amine], the “Potency (%)” value is reported as 1.3%.

With `CNc1ccc2c(Sc3ccccc3[N+](=O)[O-])cn(Cc3cccc(F)c3)c2c1` [Example 5c, [1-(3-Fluoro-benzyl)-3-(2-nitro-phenylsulfanyl)-1H-indol-6-yl]-methyl-amine], the “Potency (%)” value was found to be 13.3%.

With `CNc1ccc2c(Sc3ccccc3[N+](=O)[O-])cn(Cc3ncco3)c2c1` [Example 5m, Methyl-[3-(2-nitro-phenylsulfanyl)-1-oxazol-2-ylmethyl-1H-indol-6-yl]-amine], the “Potency (%)” value is on record as 3.2%. Take `CN(C)c1ccc2c(Sc3ccccc3[N+](=O)[O-])cn(Cc3cc(F)cc(F)c3)c2c1` [Example 18]: the “Potency (%)” value is 2.7%. With `CNc1ccc2c(Sc3ccccc3[N+](=O)[O-])cn(Cc3ccon3)c2c1` [Example 5k, [1-Isoxazol-3-ylmethyl-3-(2-nitro-phenylsulfanyl)-1H-indol-6-yl]-methyl-amine], the “Potency (%)” value was found to be 11.9%.

For the compound `CNc1ccc2c(Sc3ccccn3)cn(Cc3cc(F)cc(F)c3)c2c1` [Example 11, [1-(3,5-Difluoro-benzyl)-3-(pyridin-2-ylsulfanyl)-1H-indol-6-yl]-methyl-amine], the “Potency (%)” value is listed as 6.6%. Consider `N#CCNc1ccc2c(Sc3ccccc3[N+](=O)[O-])cn(Cc3ccccn3)c2c1` [Example 21d, [3-(2-Nitro-phenylsulfanyl)-1-pyridin-2-ylmethyl-1H-indol-6-ylamino]-acetonitrile], for which the “Potency (%)” value is 6.7%. On to `CNc1ccc2c(Sc3ccccc3[N+](=O)[O-])cn(Cc3cccnc3)c2c1` [Example 3, Methyl-[3-(2-nitro-phenylsulfanyl)-1-pyridine-3-ylmethyl-1H-indol-6-yl]-amine], for which the “Potency (%)” value is given as 13.4%. For `C#CCNc1ccc2c(Sc3ccccc3[N+](=O)[O-])cn(Cc3cc(F)cc(F)c3)c2c1` [Example 22b, [1-(3,5-Difluoro-benzyl)-3-(2-nitro-phenylsulfanyl)-1H-indol-6-yl]-prop-2-ynyl-amine], the “Potency (%)” value is on record as 27.1%. Turning to `CNc1ccc2c(Sc3ccccc3[N+](=O)[O-])cn(Cc3ccccn3)c2c1` [Example 2, Methyl-[3-(2-nitro-phenylsulfanyl)-1-pyridin-2-ylmethyl-1H-indol-6-yl]-amine], the “Potency (%)” value is listed as 9.9%. `CCCNc1ccc2c(Sc3ccccc3[N+](=O)[O-])cn(Cc3cc(F)cc(F)c3)c2c1` [Example 22a, [1-(3,5-Difluoro-benzyl)-3-(2-nitro-phenylsulfanyl)-1H-indol-6-yl]-propyl-amine]: the “Potency (%)” value was 2.4%.

`CNc1ccc2c(Sc3ccccc3[N+](=O)[O-])cn(Cc3ccccc3)c2c1` [Example 5a, [1-Benzyl-3-(2-nitro-phenylsulfanyl)-1H-indol-6-yl]-methyl-amine]: the “Potency (%)” value was 9.2%.

As to `CNc1ccc2c(Sc3ccccc3C#N)cn(Cc3ccccn3)c2c1` [Example 7, 2-(6-Methylamino-1-pyridin-2-ylmethyl-1H-indol-3-ylsulfanyl)-benzonitrile], the “Potency (%)” value came out at 1.1%. On to `CNc1ccc2c(Sc3ncccc3[N+](=O)[O-])cn(Cc3cc(F)cc(F)c3)c2c1` [Example 12, [1-(3,5-Difluoro-benzyl)-3-(3-nitro-pyridin-2-ylsulfanyl)-1H-indol-6-yl]-methyl-amine], for which the “Potency (%)” value turned out to be 5.7%. In the case of `COCCNc1ccc2c(Sc3ccccc3C#N)cn(Cc3cc(F)cc(F)c3)c2c1` [Example 21i], the “Potency (%)” value turned out to be 6.0%. `CNc1ccc2c(Sc3ccccc3[N+](=O)[O-])cn(Cc3cncnc3)c2c1` [Example 5g, Methyl-[3-(2-nitro-phenylsulfanyl)-1-pyrimidin-5-ylmethyl-1H-indol-6-yl]-amine]: the “Potency (%)” value was determined as 21.6%. For the compound `CNc1ccc2c([S+]([O-])c3ccccc3[N+](=O)[O-])cn(Cc3ccc(F)cc3)c2c1` (stereo not shown) [Example 5d], the “Potency (%)” value amounted to 4.3%.
